Experiments:
Renin = target: T1, Renin (Homo sapiens, UniProt P00797); assay: In vitro inhibitory activity against renin from lyophilized human plasma; type: cell-free
T1 sequence (P00797 whole entry): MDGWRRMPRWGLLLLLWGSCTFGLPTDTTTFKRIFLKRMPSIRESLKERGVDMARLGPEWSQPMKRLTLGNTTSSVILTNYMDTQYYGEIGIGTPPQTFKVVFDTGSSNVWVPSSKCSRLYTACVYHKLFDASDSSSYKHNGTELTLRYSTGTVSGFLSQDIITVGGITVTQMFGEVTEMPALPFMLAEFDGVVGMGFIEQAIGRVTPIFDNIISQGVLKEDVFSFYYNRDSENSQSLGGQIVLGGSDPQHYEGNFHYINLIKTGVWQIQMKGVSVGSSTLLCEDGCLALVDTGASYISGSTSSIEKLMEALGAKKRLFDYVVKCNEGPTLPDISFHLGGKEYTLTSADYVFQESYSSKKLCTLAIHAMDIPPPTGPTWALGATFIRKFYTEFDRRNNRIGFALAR

Renin (Homo sapiens) = target: T2, Renin (Homo sapiens) (UniProt P00797); assay: Inhibitory potency against renin relative to H-Pro-His-Pro-Phe-His-Phe-Phe-Val-Tyr-D-Lys-OH peptide
T2 sequence (whole entry): T1 sequence (P00797 whole entry)

Row | SMILES | IC50 (Renin) [µM] | Relative potency (Renin (Homo sapiens))
1 | CC[C@@H](C)[C@H](NC(=O)[C@H](Cc1ccccc1)NC(=O)[C@H](Cc1ccccc1)NC(=O)[C@H](Cc1cnc[nH]1)NC(=O)[C@H](Cc1ccccc1)NC(=O)[C@H]1CCCN1C(=O)[C@H](Cc1cnc[nH]1)NC(=O)[C@H]1CCCN1)C(=O)N[C@@H](Cc1cnc[nH]1)C(=O)N[C@H](CCCCN)C(=O)O | 170 | 
2 | CC(C)[C@H](NC(=O)[C@H](Cc1ccccc1)NC(=O)[C@H](Cc1ccccc1)NC(=O)[C@H](Cc1cnc[nH]1)NC(=O)[C@H](Cc1ccccc1)NC(=O)[C@H]1CCCN1C(=O)[C@H](Cc1cnc[nH]1)NC(=O)[C@H]1CCCN1)C(=O)N[C@@H](Cc1ccc(O)cc1)C(=O)N[C@H](CCCCN)C(=O)O | 10 | 
3 | CC(C)[C@H](NC(=O)[C@H](Cc1ccccc1)NC(=O)[C@H](Cc1ccccc1)NC(=O)[C@H](Cc1c[nH]cn1)NC(=O)[C@H](Cc1ccccc1)NC(=O)[C@H]1CCCN1C(=O)[C@H](Cc1c[nH]cn1)NC(=O)[C@H]1CCCN1)C(=O)N[C@@H](Cc1ccc(O)cc1)C(=O)N[C@H](CCCCN)C(=O)O |  | 1
4 | CC[C@@H](C)[C@H](NC(=O)[C@H](Cc1ccccc1)NC(=O)[C@H](Cc1ccccc1)NC(=O)[C@H](Cc1c[nH]cn1)NC(=O)[C@H](Cc1ccccc1)NC(=O)[C@H]1CCCN1C(=O)[C@H](Cc1c[nH]cn1)NC(=O)[C@H]1CCCN1)C(=O)N[C@@H](Cc1c[nH]cn1)C(=O)N[C@H](CCCCN)C(=O)O |  | 0.6
5 | CC[C@@H](C)[C@H](NC(=O)/C=C/[C@H](CC(C)C)NC(=O)[C@H](Cc1cnc[nH]1)NC(=O)[C@H](Cc1ccccc1)NC(=O)[C@H]1CCCN1C(=O)[C@H](Cc1cnc[nH]1)NC(=O)[C@H]1CCCN1)C(=O)N[C@@H](Cc1cnc[nH]1)C(=O)N[C@H](CCCCN)C(=O)O | 6.2 | 

The remaining lines, values ahead:

Row | IC50 (Renin) [µM] | Relative potency (Renin (Homo sapiens)) | SMILES
6 | 2.5 | 4 | CC[C@@H](C)[C@H](NC(=O)[C@H](C(C)C)[S+]([O-])C[C@H](CC(C)C)NC(=O)[C@H](Cc1c[nH]cn1)NC(=O)[C@H](Cc1ccccc1)NC(=O)[C@H]1CCCN1C(=O)[C@H](Cc1c[nH]cn1)NC(=O)[C@H]1CCCN1)C(=O)N[C@@H](Cc1c[nH]cn1)C(=O)N[C@H](CCCCN)C(=O)O (some centres not stated)
7 |  | 1.6 | CC[C@@H](C)[C@H](NC(=O)/C=C/[C@H](CC(C)C)NC(=O)[C@H](Cc1c[nH]cn1)NC(=O)[C@H](Cc1ccccc1)NC(=O)[C@H]1CCCN1C(=O)[C@H](Cc1c[nH]cn1)NC(=O)[C@H]1CCCN1)C(=O)N[C@@H](Cc1c[nH]cn1)C(=O)N[C@H](CCCCN)C(=O)O
8 | 6 | 1.6 | CC[C@@H](C)[C@H](NC(=O)[C@@H](SC[C@H](CC(C)C)NC(=O)[C@H](Cc1c[nH]cn1)NC(=O)[C@H](Cc1ccccc1)NC(=O)[C@H]1CCCN1C(=O)[C@H](Cc1c[nH]cn1)NC(=O)[C@H]1CCCN1)C(C)C)C(=O)N[C@@H](Cc1c[nH]cn1)C(=O)N[C@H](CCCCN)C(=O)O
9 | 0.049 | 200 | CC[C@@H](C)[C@H](NC(=O)[C@@H](NC[C@H](CC(C)C)NC(=O)[C@H](Cc1c[nH]cn1)NC(=O)[C@H](Cc1ccccc1)NC(=O)[C@H]1CCCN1C(=O)[C@H](Cc1c[nH]cn1)NC(=O)[C@H]1CCCN1)C(C)C)C(=O)N[C@@H](Cc1c[nH]cn1)C(=O)N[C@H](CCCCN)C(=O)O
